Source: US9131677B2, “Organ preservation solution” (University Court of the University of Edinburgh, priority 2006, dated 2015)

Assays:
[1] = tested on: Human umbilical vein endothelial cells (HUVEC); experiment: Endothelial cell viability assay (trypan blue exclusion); details: for HUVEC cell viability vs control: 37° C., absence of any oxidants (unstressed); for HUVEC cell viability vs control / HUVEC cell survival in the presence of menadione: supplemented UW
Method: Human umbilical vein endothelial cells (HUVEC) were seeded in 162 ml flasks (Dulbecco's modified Eagle's medium 37° C., 5% CO2). Cells were cultured to confluence and transferred to 6-well culture dishes containing phosphate buffered saline (control), UW without GSH, UW+GSH (3 mM), UW+GSH-MEE (3 mM) or UW+GSNO for 24 h (37° C.) in the absence of any oxidants or in the presence of a hydroxyl radical generator (menadione; 10 μM), the superoxide generating system, xanthine+xanthine oxidase (5 μM; 1 mU/ml) or the oxidant species H2O2 (100 μM). Cell viability after 24 h incubations was assessed using a standard trypan blue exclusion assay.

aortic rings = experiment: Cold ischaemic storage of aortic rings in UW solutions followed by myograph reoxygenation; parameters: species or system Wistar rats; details: for endothelium-dependent relaxation (ACh) vs GSH-free UW: GSH 3 mM, GSHMEE 3 mM
Method: Animal care and experimental protocols were performed in accordance with the Home Office Guidance in the Operation of Animals (Scientific Procedures) Act 1986, UK. Adult male Wistar rats weighing 300-450 g were kept in a temperature-controlled environment with a 12 h light-dark cycle, and allowed free access to water and standard diet. University of Wisconsin solution was prepared according to standard protocol: Potassium lactobionate 100 mM, KH2PO4 25 mM, MgSO4 5 mM, raffinose 30 mM, adenosine 5 mM, allopurinol 1 mM, dexamethasone 16 mg/L, insulin 40 U/L, penicillin 200 000 U/L and EDTA 0.03 mM at pH 7.4. The EDTA was added in order to help protect GSNO against metal-ion catalysed decomposition. The solution was bubbled with argon gas for 1 hour to mimic hypoxia. Oxygen levels were confirmed using an oxygen electrode (Apollo 4000 integrated free radical analyser, World Precision Instruments Inc. USA). Bubbling for 30 minutes depleted >90% of oxygen in solution. Following cervical dislocation, laparotomy was performed and the aorta dissected with clearance of periaortic fat and connective tissue. Vessels were divided into 3-5 mm aortic rings with care taken not to stretch or damage the vessels. Aortic rings were subjected to cold ischaemic storage (4° C. for 1 or 48 hours) in sealed containers filled with hypoxic control (UW without GSH) solution; UW with GSH (3 mM); UW with glutathione monoethyl ester ([…]; 3 mM) or UW with S-nitrosated glutathione (GSNO; 100 μM). After storage, aortic rings were suspended between two stainless steel supports in a myograph (700MO, Danish Myo, Aarhus, Denmark) and reoxygenated in 10 ml organ baths containing Krebs buffer solution (mM): […] Resting tensions of 1.5 g were applied to all rings prior to equilibration (30 minutes). Following equilibration, all vessels were exposed to Krebs buffer containing a high concentration of potassium (60 mM) three times to assess tissue viability and to provide a reference maximum contraction for subsequent data analysis. Each response was followed by a washout. A concentration-response curve to the α1 adrenoceptor agonist, L-phenylephrine (PE; 10^-8M-3×10^-5M) was then constructed and used to identify the concentration of PE required to generate 80% maximal contraction (EC80) for subsequent vasodilator studies. Upon establishing stable contractions, cumulative concentration-response curves to the endothelium-dependent vasodilator, acetylcholine (ACh; 10^-9-10^-5M) were constructed in all preparations. Only one concentration-response curve was obtained per tissue. A further submaximal PE contraction was elicited and the NO synthase inhibitor, N^ω-nitro-L-arginine methyl ester (L-NAME) was applied to inhibit endogenous NO production and to determine the vasodilatory effect of endothelium-derived NO under basal (unstimulated) conditions. Subsequently, the NO scavenger, carboxy-PTIO (cPTIO; 1 mM), was added in order to establish the contribution of NOS-independent NO to any vasodilator tone existing under basal conditions.

[2] = Decomposition of GSNO in storage, absorbance at 339 nm; type: physicochemical
Method: The freezing point for DMSO is ˜15° C., so these samples were effectively “frozen” for the duration of the experiment, perhaps contributing to the stability of GSNO under these conditions. The apparent depression of absorbance at time zero in the DMSO sample is most likely attributable to incomplete dissolution of the material when the first measurement was taken.

[3] = after 48 h cold ischaemia, GSNO 100 μM

Row | SMILES | HUVEC cell viability vs control ([1]; 24 h) | HUVEC cell survival in the presence of menadione ([1]; 24 h, menadione 10 μM) | contraction on addition of L-NAME to precontracted tissues vs standard UW (aortic rings; after 48 h cold ischaemia) | endothelium-dependent relaxation (ACh) vs GSH-free UW (aortic rings; [3]) | further results
1 | CC1=CC(=O)c2ccccc2C1=O [menadione] | – | – | – | – | cells surviving oxidant treatment under control conditions ([1]; 24 hr treatment, menadione 10 μM): less than 5%
2 | OO [H2O2] | – | – | – | – | effect of oxidant on HUVEC cell survival ([1]; 24 h, X/XO 5 μM, 1 mU/ml, H2O2 100 μM): substantial cell death
3 | N[C@@H](CCC(=O)N[C@@H](CSN=O)C(=O)NCC(=O)O)C(=O)O [GSNO, S-nitrosoglutathione] | not significantly different from control | ineffective | significantly lesser contraction | no significant difference | contraction on further addition of NO scavenger cPTIO vs standard UW (aortic rings; after 1 h cold ischaemia): significantly greater contraction; contraction on further addition of cPTIO vs standard UW (aortic rings; after 48 h cold ischaemia): significantly greater contraction; maximal contractions to PE vs GSH-free UW (aortic rings; [3]): significantly depressed maximal contractions; half-life at 100 µM ([2]; modified UW solution, modified UW (containing EDTA but excluding GSH), refrigerator in the dark at 4-6° C.): ~144 h; decomposition of GSNO in 100% DMSO ([2]; same time period, dark, 4-6° C., samples effectively frozen): did not show any significant decomposition
4 | CCOC(=O)CNC(=O)[C@H](CS)NC(=O)CC[C@H](N)C(=O)O [GSH-MEE, glutathione monoethyl ester] | significantly reduced viability | significantly enhanced cell survival | significantly lesser contraction | no significant difference | –
5 | N[C@@H](CCC(=O)N[C@@H](CS)C(=O)NCC(=O)O)C(=O)O [GSH, Glutathione] | significantly reduced viability | significantly enhanced cell survival | – | significantly poorer endothelium-dependent relaxation | –
